Data: patent US6979572B1, “Compositions and methods for inhibiting inward-rectifier potassium channels” (Trustees of the University of Pennsylvania, priority 1998, dated 2005)
Square brackets hold non-standard residues; d marks the D form. Ends that are not written are not given here. Met(O) = CS(=O)CC[C@H](N)C(=O)O

What was measured:
[1] = target: T1, ROMK1 inward-rectifier K+ channel (Rattus norvegicus, UniProt P35560); conditions: literature values; read-out: Kd for block of ROMK1; cited from earlier work
T1 sequence (P35560 1-391): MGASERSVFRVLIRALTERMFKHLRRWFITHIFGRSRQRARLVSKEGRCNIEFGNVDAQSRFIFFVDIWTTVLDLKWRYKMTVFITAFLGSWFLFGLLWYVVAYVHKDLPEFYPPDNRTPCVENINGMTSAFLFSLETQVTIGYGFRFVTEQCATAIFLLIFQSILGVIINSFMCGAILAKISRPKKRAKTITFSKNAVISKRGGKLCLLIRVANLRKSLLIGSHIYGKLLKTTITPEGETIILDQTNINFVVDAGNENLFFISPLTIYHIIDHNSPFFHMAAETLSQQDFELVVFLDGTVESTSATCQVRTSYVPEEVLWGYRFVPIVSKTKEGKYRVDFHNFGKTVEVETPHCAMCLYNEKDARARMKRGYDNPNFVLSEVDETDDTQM

[2] = target: T2, ROMK1 channel (Rattus norvegicus, UniProt P35560); test: Two-electrode voltage clamp of wild-type ROMK1 channel in Xenopus oocytes; type: cell-based
T2 construct: expressed in transfected cells; host or cells: Xenopus laevis oocytes (cRNA injection)
T2 sequence (P35560 1-391): T1 sequence (P35560 1-391)
Protocol: Oocytes harvested from Xenopus laevis frogs were digested with collagenase (2 mg/mL) in a solution containing: NaCl, 82.5 mM; KCl, 2.5 mM; MgCl2, 1.0 mM; HEPES, 5.0 mM (pH 7.6) and were agitated on a platform shaker at a rate of 80 rpm for 90 minutes. The oocytes were then rinsed thoroughly with and stored in a solution containing: gentamicin, 50 μg/mL; NaCl, 96 mM; KCl, 2 mM; CaCl2, 1.8 mM; MgCl, 1 mM; HEPES, 5 mM (pH 7.6). Defolliculated oocytes were selected at least 2 hours after the collagenase digestion. To express channels, the corresponding cRNA was directly injected into oocytes. To express the GIRK1/4 channel, GIRK1 and GIRK4 cRNAs were co-injected with either M2 or M4 receptor cRNA. All injections were carried out at least 16 hours after the collagenase treatment. The injected oocytes were stored in an 18° C. incubator.
All three inward-rectifier K^+ channels, GIRK1/4, ROMK1, and IRK1, were studied using a two-electrode voltage clamp amplifier (Oocyte Clamp OC-725C, Warner Instruments Corp.). The resistance of electrodes filled with 3 M KCl were 0.2–0.4 M Ω. To elicit current through the channel, the membrane potential of oocytes was stepped to −80 mV (100–125 ms) and then to +80 mV (100–125 ms) from the holding potential of 0 mV. […] Tertiapin concentration was calculated using an extinction coefficient 6.1 mM^−1 cm^−1 at 280 nm wavelength. […]

Substance | Kd [1] | sensitivity / affinity of the ROMK1 channel, in words [2]
Δ-dendrotoxin | 150 nM | 
oxidized form of tertiapin: tertiapin whose methionine residue M13 has become oxidized (ALCNCNRIIIPH[Met(O)]CWKKCGKK; disulfide (positions not given here); ends not checked; UniProt P56587 1-21, looked up) |  | lower affinity than the non-oxidized form
